Test results published in BindingDB's records for doi:10.1021/jm960697s (Pfizer, 1997).
pIC50, pKi: −log10 of the molar value.

Key:
[1] = target: Alpha-1B adrenergic receptor (Mesocricetus auratus) (UniProt P18841); test: Binding affinity was tested on cloned hamster Alpha-1B adrenergic receptor
[2] = target: T1, 3-oxo-5-alpha-steroid 4-dehydrogenase 1 (Homo sapiens, UniProt P18405); test: Binding affinity for human 5 alpha reductase 1 isozyme
T1 sequence (P18405 whole entry): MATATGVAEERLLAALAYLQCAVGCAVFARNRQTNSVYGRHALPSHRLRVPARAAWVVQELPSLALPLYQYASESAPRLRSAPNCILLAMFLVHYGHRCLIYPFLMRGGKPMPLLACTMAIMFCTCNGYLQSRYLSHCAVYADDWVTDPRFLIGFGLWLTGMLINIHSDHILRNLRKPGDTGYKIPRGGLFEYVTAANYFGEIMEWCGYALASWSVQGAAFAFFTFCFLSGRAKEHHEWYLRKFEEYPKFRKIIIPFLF

Chain of Alpha-1B adrenergic receptor (Mesocricetus auratus) (P18841 whole entry, looked up): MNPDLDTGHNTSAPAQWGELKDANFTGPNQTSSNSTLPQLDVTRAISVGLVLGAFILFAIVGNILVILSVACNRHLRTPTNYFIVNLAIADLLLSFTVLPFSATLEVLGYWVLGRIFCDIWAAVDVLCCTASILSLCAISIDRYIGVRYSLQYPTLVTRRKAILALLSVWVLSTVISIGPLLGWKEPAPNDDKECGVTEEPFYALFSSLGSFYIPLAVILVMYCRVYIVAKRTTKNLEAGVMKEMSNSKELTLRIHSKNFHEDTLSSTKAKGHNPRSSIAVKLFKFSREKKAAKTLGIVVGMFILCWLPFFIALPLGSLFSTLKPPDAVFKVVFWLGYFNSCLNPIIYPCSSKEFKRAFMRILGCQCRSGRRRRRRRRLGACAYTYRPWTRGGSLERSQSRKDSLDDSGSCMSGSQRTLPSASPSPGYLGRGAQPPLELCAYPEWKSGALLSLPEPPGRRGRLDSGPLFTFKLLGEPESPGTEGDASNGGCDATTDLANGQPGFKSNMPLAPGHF

pIC50 [1]	pKi [2]	SMILES
6.69		COc1ccc(CC2c3cc(OC)c(OC)cc3CCN2c2nc(N)c3cc(OC)c(OC)cc3n2)cc1OC (stereo not drawn) [2-[1-(3,4-Dimethoxy-benzyl)-6,7-dimethoxy-3,4-dihydro-1H-isoquinolin-2-yl]-6,7-dimethoxy-quinazolin-4-ylamine]
	9.70	CC1C(=O)CC[C@@]2(C)C1=NCC1C2CC[C@@]2(C)C1CC[C@@H]2C(=O)Nc1cc(C(F)(F)F)ccc1C(F)(F)F (stereo partly drawn) [(1S,9aR,11aS)-6,9a,11a-Trimethyl-7-oxo-2,3,3a,3b,4,5,7,8,9,9a,9b,10,11,11a-tetradecahydro-1H-cyclopenta[i]phenanthridine-1-carboxylic acid (2,5-bis-trifluoromethyl-phenyl)-amide]
	9.70	C[C@]12CCC(=O)C(Cl)C1=NCC1C2CC[C@@]2(C)C1CC[C@@H]2C(=O)Nc1cc(C(F)(F)F)ccc1C(F)(F)F (stereo partly drawn) [(1S,9aR,11aS)-6-Chloro-9a,11a-dimethyl-7-oxo-2,3,3a,3b,4,5,7,8,9,9a,9b,10,11,11a-tetradecahydro-1H-cyclopenta[i]phenanthridine-1-carboxylic acid (2,5-bis-trifluoromethyl-phenyl)-amide]
